Results on 20 compounds are retold here after US20260327191A1, “GSK3a INHIBITORS AND METHODS OF USE THEREOF” (Blueprint Medicines Corporation, priority 2023, published 2026).

Read-outs that look alike come from different tables or passages of the source.

One assay deals with T1, GSK3A (Homo sapiens, UniProt P49840).
T1 construct: expressed in transfected cells
Briefly: NanoBRET cellular target engagement assay, Nanoluc-GSK3A in HEK293 cells. It is filed as cell-based. The following applies: NanoBRET GSK3α IC50, HEK293 cells, tracer K-8, 2 hours, 37° C. Background: BRET reads energy transfer from a luciferase to a nearby fluorophore.

A further assay addresses T2, human GSK3α (Homo sapiens, UniProt P49840).
T2 construct: Full length human GSK3α or GSK3B expressed as N-terminal GST fusion proteins; GST (N); purchased Carna Biosciences (Japan); host or cells: baculovirus host
The assay is described as follows: In vitro enzymatic activity assay, GSK3α. It counts as biochemical. The following applies: 1.0 mM ATP, 1.0 μM peptide substrate, 120 min, 25° C.

The target of assay [1] is T3, GSK3B (Homo sapiens, UniProt P49841). Briefly: In vitro enzymatic activity assay, GSK3β. It is filed as biochemical. The arrangement: Full length human GSK3α or GSK3B expressed as N-terminal GST fusion proteins; GST (N); purchased Carna Biosciences (Japan); host or cells: baculovirus host. Particulars: 1.0 mM ATP, 1.0 μM peptide substrate, 120 min, 25° C.
Assay [2] deals with T3, GSK3B. The assay is described as follows: NanoBRET cellular target engagement assay, Nanoluc-GSK3B in HEK293 cells. It is filed as cell-based. The arrangement: expressed in transfected cells. Particulars: NanoBRET GSK3β IC50, HEK293 cells, tracer K-8, 2 hours, 37° C.

In general, IC50 refers to the concentration that gives 50% inhibition.

T2 sequence (P49840 whole entry, the tested form may be a part): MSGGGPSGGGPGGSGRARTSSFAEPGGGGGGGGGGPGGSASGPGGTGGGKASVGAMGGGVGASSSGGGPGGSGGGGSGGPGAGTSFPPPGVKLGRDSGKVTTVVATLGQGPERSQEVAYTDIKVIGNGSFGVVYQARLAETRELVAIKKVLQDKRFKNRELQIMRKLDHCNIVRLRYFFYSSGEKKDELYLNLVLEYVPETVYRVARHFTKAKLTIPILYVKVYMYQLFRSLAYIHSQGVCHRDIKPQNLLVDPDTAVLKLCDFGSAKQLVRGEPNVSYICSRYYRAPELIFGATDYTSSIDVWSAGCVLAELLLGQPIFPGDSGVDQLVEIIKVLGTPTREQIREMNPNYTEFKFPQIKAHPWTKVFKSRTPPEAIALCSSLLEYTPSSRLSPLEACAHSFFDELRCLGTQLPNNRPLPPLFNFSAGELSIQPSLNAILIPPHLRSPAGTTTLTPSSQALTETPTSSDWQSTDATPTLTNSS
T1 sequence (P49840 whole entry): as the sequence (P49840 whole entry, the tested form may be a part) above
T3 sequence (P49841 whole entry, the tested form may be a part): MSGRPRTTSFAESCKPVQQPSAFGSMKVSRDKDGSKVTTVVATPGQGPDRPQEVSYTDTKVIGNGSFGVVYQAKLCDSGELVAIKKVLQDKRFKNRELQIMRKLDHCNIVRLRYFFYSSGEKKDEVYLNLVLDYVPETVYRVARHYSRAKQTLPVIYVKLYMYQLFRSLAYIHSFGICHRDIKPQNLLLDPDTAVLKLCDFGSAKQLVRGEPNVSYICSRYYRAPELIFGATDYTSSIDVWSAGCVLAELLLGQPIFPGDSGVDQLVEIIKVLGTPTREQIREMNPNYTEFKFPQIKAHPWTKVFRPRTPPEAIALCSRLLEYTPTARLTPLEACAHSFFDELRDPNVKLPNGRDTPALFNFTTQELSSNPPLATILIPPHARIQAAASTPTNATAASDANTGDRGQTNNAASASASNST

Take `CCOc1cc(C)c(-n2cnc(N)c(C(=O)Nc3cnnc(C(N)=O)c3)c2=O)c(C)c1` [Example 29, 5-(4-amino-1-(4-ethoxy-2,6-dimethylphenyl)-6-oxo-1,6-dihydropyrimidine-5-carboxamido)pyridazine-3-carboxamide]: the IC50 on GSK3A was determined as 79.2 nM; against human GSK3α (Enzyme GSK3α (IC50)) it was 92.2 nM; against GSK3B [1] (Enzyme GSK3β (IC50)) it was 3800 nM; at GSK3B [2], 25000 nM.
Take `COCc1cc(C)c(-n2cnc(N)c(C(=O)Nc3cnnc(C(N)=O)c3)c2=O)c(C)c1` [Example 30, 5-(4-amino-1-(4-(methoxymethyl)-2,6-dimethylphenyl)-6-oxo-1,6-dihydropyrimidine-5-carboxamido)pyridazine-3-carboxamide]: the IC50 against GSK3A is 72.2 nM; at human GSK3α (read-out: Enzyme GSK3α (IC50)), 63.9 nM; on GSK3B [1] (read-out: Enzyme GSK3β (IC50)), 1950 nM; against GSK3B [2], 15800 nM.
Turning to `COc1cc(Cl)c(-n2cnc(N)c(C(=O)Nc3cncc([C@@H]4CCCCN4)c3)c2=O)c(Cl)c1` [Example 34, (S)-4-amino-1-(2,6-dichloro-4-methoxyphenyl)-6-oxo-N-(5-(piperidin-2-yl)pyridin-3-yl)-1,6-dihydropyrimidine-5-carboxamide], the IC50 against GSK3A came to 3.7 nM; at human GSK3α (read-out: Enzyme GSK3α (IC50)), 6.5 nM; at GSK3B [1] (read-out: Enzyme GSK3β (IC50)), 344 nM; against GSK3B [2] it was 268 nM.
For `COc1cc(C)c(-n2cnc(N)c(C(=O)Nc3cccc(C4(N)CCC4)c3)c2=O)c(Cl)c1` [Example 38, 4-amino-N-(3-(1-aminocyclobutyl)phenyl)-1-((S)-2-chloro-4-methoxy-6-methylphenyl)-6-oxo-1,6-dihydropyrimidine-5-carboxamide], in that order: 3.6 nM, 4.6 nM, 282 nM and 230 nM.
In the case of `Nc1ncn(-c2c(Cl)cccc2Cl)c(=O)c1C(=O)Nc1cncc([C@@H]2CCCN2)c1` [Example 40, (S)-4-amino-1-(2,6-dichlorophenyl)-6-oxo-N-(5-(pyrrolidin-2-yl)pyridin-3-yl)-1,6-dihydropyrimidine-5-carboxamide], the IC50 against GSK3A came out at 5.8 nM; on human GSK3α (read-out: Enzyme GSK3α (IC50)) it was 10.1 nM; on GSK3B [1] (read-out: Enzyme GSK3β (IC50)) it was 418 nM; against GSK3B [2] it was 431 nM.
Take `Cc1cc(Cl)c(-n2cnc(N)c(C(=O)Nc3cncc([C@@H]4CCCN4)c3)c2=O)c(Cl)c1` [Example 45, (S)-4-amino-1-(2,6-dichloro-4-methylphenyl)-6-oxo-N-(5-(pyrrolidin-2-yl)pyridin-3-yl)-1,6-dihydropyrimidine-5-carboxamide]: the IC50 against GSK3A came to 6.6 nM; at human GSK3α (read-out: Enzyme GSK3α (IC50)), 8.5 nM; at GSK3B [1] (read-out: Enzyme GSK3β (IC50)), 384 nM; against GSK3B [2], 365 nM.
For `Nc1ncn(-c2c(Cl)cc(OC(F)F)cc2Cl)c(=O)c1C(=O)Nc1cncc([C@@H]2CCCCN2)c1` [Example 46, (S)-4-amino-1-(2,6-dichloro-4-(difluoromethoxy)phenyl)-6-oxo-N-(5-(piperidin-2-yl)pyridin-3-yl)-1,6-dihydropyrimidine-5-carboxamide], in that order: 7.3 nM, 10.5 nM, 489 nM and 395 nM.
For `Nc1ncn(-c2c(Cl)cc(Cl)cc2Cl)c(=O)c1C(=O)Nc1cncc([C@@H]2CCCCN2)c1` [Example 48, (S)-4-amino-6-oxo-N-(5-(piperidin-2-yl)pyridin-3-yl)-1-(2,4,6-trichlorophenyl)-1,6-dihydropyrimidine-5-carboxamide], in that order: 4.7 nM, 5.2 nM, 343 nM and 298 nM.
For `NCc1cncc(NC(=O)c2c(N)ncn(-c3c(Cl)cc(OC4CC4)cc3Cl)c2=O)c1` [Example 52, 4-amino-N-(5-(aminomethyl)pyridin-3-yl)-1-(2,6-dichloro-4-cyclopropoxyphenyl)-6-oxo-1,6-dihydropyrimidine-5-carboxamide], in that order: 2.5 nM, 4.4 nM, 209 nM and 132 nM.
As for `Nc1ncn(-c2c(Cl)cc(C(F)F)cc2Cl)c(=O)c1C(=O)Nc1cccc([C@@H]2CCCN2)c1` [Example 54, (S)-4-amino-1-(2,6-dichloro-4-(difluoromethyl)phenyl)-6-oxo-N-(3-(pyrrolidin-2-yl)phenyl)-1,6-dihydropyrimidine-5-carboxamide], the IC50 came to 5.4 nM against GSK3A, 5.4 nM on human GSK3α (read-out: Enzyme GSK3α (IC50)), 345 nM on GSK3B [1] (read-out: Enzyme GSK3β (IC50)) and 340 nM at GSK3B [2].
With `Nc1ncn(-c2c(Cl)cc(C(F)F)cc2Cl)c(=O)c1C(=O)Nc1cncc([C@@H]2CCCN2)c1` [Example 55, (S)-4-amino-1-(2,6-dichloro-4-(difluoromethyl)phenyl)-6-oxo-N-(5-(pyrrolidin-2-yl)pyridin-3-yl)-1,6-dihydropyrimidine-5-carboxamide], the IC50 on GSK3A was determined as 6.5 nM; on human GSK3α (read-out: Enzyme GSK3α (IC50)) it was 9.1 nM; on GSK3B [1] (read-out: Enzyme GSK3β (IC50)), 430 nM; against GSK3B [2], 483 nM.
For `Nc1ncn(-c2c(Cl)cc(C(F)F)cc2Cl)c(=O)c1C(=O)Nc1cncc([C@@H]2CCCCN2)c1` [Example 56, (S)-4-amino-1-(2,6-dichloro-4-(difluoromethyl)phenyl)-6-oxo-N-(5-(piperidin-2-yl)pyridin-3-yl)-1,6-dihydropyrimidine-5-carboxamide], in that order: 4.8 nM, 5.7 nM, 323 nM and 273 nM.
For `CCNCc1cncc(NC(=O)c2c(N)ncn(-c3c(Cl)cc(COC)cc3Cl)c2=O)c1` [Example 60, 4-amino-1-(2,6-dichloro-4-(methoxymethyl)phenyl)-N-(5-((ethylamino)methyl)pyridin-3-yl)-6-oxo-1,6-dihydropyrimidine-5-carboxamide], in that order: 3 nM, 6.5 nM, 334 nM and 200 nM.
For `COCc1cc(Cl)c(-n2cnc(N)c(C(=O)Nc3cncc([C@@H]4CCCCN4)c3)c2=O)c(Cl)c1` [Example 61, (S)-4-amino-1-(2,6-dichloro-4-(methoxymethyl)phenyl)-6-oxo-N-(5-(piperidin-2-yl)pyridin-3-yl)-1,6-dihydropyrimidine-5-carboxamide], in that order: 3.7 nM, 6.4 nM, 466 nM and 284 nM.
Regarding `COCc1cc(Cl)c(-n2cnc(N)c(C(=O)Nc3cncc(CNCCO)c3)c2=O)c(Cl)c1` [Example 63, 4-amino-1-(2,6-dichloro-4-(methoxymethyl)phenyl)-N-(5-(((2-hydroxyethyl)amino)methyl)pyridin-3-yl)-6-oxo-1,6-dihydropyrimidine-5-carboxamide], the IC50 against GSK3A came to 4.4 nM; on human GSK3α (read-out: Enzyme GSK3α (IC50)), 4.5 nM; on GSK3B [1] (read-out: Enzyme GSK3β (IC50)) it was 209 nM; against GSK3B [2], 234 nM.
For `COCc1cc(Cl)c(-n2cnc(N)c(C(=O)Nc3cncc(CNC(C)C)c3)c2=O)c(Cl)c1` [Example 64, 4-amino-1-(2,6-dichloro-4-(methoxymethyl)phenyl)-N-(5-((isopropylamino)methyl)pyridin-3-yl)-6-oxo-1,6-dihydropyrimidine-5-carboxamide], in that order: 6.5 nM, 11.7 nM, 621 nM and 489 nM.
For `COCc1cc(Cl)c(-n2cnc(N)c(C(=O)Nc3cncc(C4(N)CCC4)c3)c2=O)c(Cl)c1` [Example 65, 4-amino-N-(5-(1-aminocyclobutyl)pyridin-3-yl)-1-(2,6-dichloro-4-(methoxymethyl)phenyl)-6-oxo-1,6-dihydropyrimidine-5-carboxamide], in that order: 3.1 nM, 5.1 nM, 302 nM and 217 nM.
Consider `COc1cc(Cl)c(-n2cnc(N)c(C(=O)Nc3cncc([C@@H]4CCCN4)c3)c2=O)c(Cl)c1` [Example 73, (S)-4-amino-1-(2,6-dichloro-4-methoxyphenyl)-6-oxo-N-(5-(pyrrolidin-2-yl)pyridin-3-yl)-1,6-dihydropyrimidine-5-carboxamide], for which the IC50 stood at 5.8 nM on GSK3A, 6.7 nM on human GSK3α (read-out: Enzyme GSK3α (IC50)), 318 nM at GSK3B [1] (read-out: Enzyme GSK3β (IC50)) and 374 nM against GSK3B [2].
For the compound `COC[C@@H](N)c1cncc(NC(=O)c2c(N)ncn(-c3c(Cl)cc(OC)cc3Cl)c2=O)c1` [Example 77, (S)-4-amino-N-(5-(1-amino-2-methoxyethyl)pyridin-3-yl)-1-(2,6-dichloro-4-methoxyphenyl)-6-oxo-1,6-dihydropyrimidine-5-carboxamide], the IC50 against GSK3A came to 3.5 nM; at human GSK3α (read-out: Enzyme GSK3α (IC50)), 2.2 nM; on GSK3B [1] (read-out: Enzyme GSK3β (IC50)), 152 nM; on GSK3B [2] it was 196 nM.
On to `CCCOc1cc(Cl)c(-n2cnc(N)c(C(=O)Nc3cncc(CNCC)c3)c2=O)c(Cl)c1` [Example 86, 4-amino-1-(2,6-dichloro-4-propoxyphenyl)-N-(5-((ethylamino)methyl)pyridin-3-yl)-6-oxo-1,6-dihydropyrimidine-5-carboxamide], for which the IC50 amounted to 4.2 nM against GSK3A, 6.6 nM at human GSK3α (read-out: Enzyme GSK3α (IC50)), 414 nM at GSK3B [1] (read-out: Enzyme GSK3β (IC50)) and 321 nM against GSK3B [2].
